Data taken from patent US8853203B2, “Diazepinone derivatives” (Novartis AG, priority 2012, dated 2014).

Columns and labels:
human mGluR5a receptors = human mGluR5a receptors (Homo sapiens (Human), UniProt P41594); assay: inhibition of glutamate-induced elevation of intracellular calcium in L(tk-) cells expressing human mGluR5a; type: cell-based; conditions: glutamate-induced intracellular calcium elevation, L(tk-) cells expressing human mGluR5a; read-out: mGluR5 IC50
Procedure, shortened: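 Compounds tested for inhibition of the glutamate-induced rise in intracellular calcium concentration in L(tk-) cells stably expressing human mGluR5a.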

human mGluR1 = human mGluR1 (Homo sapiens (Human), UniProt Q13255); assay: mGluR1 antagonism, L-glutamate induced intracellular calcium increase (FLIPR) in CHO cells stably expressing human mGluR1; type: cell-based; conditions: L-glutamate induced intracellular calcium, CHO cells expressing human mGluR1, FLIPR
Sequence of human mGluR1 (Q13255 19-1194): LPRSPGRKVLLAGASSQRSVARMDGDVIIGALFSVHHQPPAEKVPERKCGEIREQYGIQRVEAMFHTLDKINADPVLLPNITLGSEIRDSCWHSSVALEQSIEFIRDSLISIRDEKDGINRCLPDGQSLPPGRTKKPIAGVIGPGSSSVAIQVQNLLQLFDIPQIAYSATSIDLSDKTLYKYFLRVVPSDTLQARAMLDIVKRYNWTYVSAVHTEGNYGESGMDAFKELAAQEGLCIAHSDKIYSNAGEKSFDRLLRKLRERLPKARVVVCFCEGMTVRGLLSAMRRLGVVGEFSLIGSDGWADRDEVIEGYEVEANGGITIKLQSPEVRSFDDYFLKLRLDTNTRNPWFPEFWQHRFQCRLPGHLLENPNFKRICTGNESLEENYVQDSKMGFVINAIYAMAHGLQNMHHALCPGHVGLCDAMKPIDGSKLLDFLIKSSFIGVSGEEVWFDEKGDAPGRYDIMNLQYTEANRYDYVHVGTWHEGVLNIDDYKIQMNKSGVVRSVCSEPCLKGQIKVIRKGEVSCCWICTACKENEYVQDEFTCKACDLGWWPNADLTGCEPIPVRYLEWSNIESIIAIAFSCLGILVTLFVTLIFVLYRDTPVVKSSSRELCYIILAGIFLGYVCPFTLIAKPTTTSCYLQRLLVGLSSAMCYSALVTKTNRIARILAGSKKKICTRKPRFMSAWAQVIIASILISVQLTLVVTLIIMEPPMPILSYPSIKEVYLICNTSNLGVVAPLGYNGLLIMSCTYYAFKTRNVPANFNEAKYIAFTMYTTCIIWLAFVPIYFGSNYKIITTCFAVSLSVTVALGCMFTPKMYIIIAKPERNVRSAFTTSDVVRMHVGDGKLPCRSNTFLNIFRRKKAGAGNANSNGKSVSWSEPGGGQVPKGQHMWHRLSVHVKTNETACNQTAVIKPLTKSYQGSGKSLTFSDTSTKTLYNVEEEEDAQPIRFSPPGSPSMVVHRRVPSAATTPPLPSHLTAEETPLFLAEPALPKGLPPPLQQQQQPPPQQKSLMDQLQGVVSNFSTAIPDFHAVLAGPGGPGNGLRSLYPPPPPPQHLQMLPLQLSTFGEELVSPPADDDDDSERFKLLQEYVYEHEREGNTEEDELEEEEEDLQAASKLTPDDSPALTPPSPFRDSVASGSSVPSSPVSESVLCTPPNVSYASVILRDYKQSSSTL

Sequence of human mGluR5a receptors (P41594 other isoform, or with tags, fused parts or gaps): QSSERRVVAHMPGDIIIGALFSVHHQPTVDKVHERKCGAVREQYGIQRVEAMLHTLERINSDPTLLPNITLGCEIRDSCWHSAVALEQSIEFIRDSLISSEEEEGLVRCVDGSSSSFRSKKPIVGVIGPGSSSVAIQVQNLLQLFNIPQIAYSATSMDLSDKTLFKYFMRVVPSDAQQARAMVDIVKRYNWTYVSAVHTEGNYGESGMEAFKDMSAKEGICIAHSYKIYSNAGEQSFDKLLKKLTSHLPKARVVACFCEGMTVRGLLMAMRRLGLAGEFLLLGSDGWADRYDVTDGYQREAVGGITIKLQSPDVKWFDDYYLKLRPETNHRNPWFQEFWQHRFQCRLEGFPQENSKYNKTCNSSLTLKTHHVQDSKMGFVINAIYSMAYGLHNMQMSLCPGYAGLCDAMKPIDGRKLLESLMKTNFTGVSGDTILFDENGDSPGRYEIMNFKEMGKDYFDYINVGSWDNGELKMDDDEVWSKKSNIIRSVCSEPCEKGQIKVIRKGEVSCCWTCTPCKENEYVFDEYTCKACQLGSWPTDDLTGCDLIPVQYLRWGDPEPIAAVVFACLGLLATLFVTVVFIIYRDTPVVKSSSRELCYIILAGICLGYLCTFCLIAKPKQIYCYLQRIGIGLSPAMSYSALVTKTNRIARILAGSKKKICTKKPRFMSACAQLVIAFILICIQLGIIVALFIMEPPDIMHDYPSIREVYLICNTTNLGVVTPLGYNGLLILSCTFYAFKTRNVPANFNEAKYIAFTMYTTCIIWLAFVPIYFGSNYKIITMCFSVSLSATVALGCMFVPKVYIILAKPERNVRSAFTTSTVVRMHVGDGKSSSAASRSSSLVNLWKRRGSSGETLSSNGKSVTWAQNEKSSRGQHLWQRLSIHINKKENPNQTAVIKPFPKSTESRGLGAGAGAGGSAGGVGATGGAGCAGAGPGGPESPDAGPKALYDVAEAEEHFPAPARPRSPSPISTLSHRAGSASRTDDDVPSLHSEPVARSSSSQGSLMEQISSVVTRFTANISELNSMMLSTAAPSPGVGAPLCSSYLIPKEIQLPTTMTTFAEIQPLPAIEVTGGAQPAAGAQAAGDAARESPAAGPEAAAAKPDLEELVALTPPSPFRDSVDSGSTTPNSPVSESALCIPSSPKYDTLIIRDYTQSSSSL

| IC50 (human mGluR5a receptors) | IC50 (human mGluR1) | Structure (SMILES) |
| --- | --- | --- |
| 11 nM | > 10000 nM | COc1cc(C2=NCC(=O)N3CCc4c(cccc4-c4ccncc4F)C3=C2)ccn1 [Example 54, 9-(3-fluoropyridin-4-yl)-2-(2-methoxypyridin-4-yl)-7,8-dihydro-[1,4]diazepino[7,1-a]isoquinolin-5(4H)-one] |
| 71 nM | > 10000 nM | COc1cc(C2=NCC(=O)N3CCc4c(cccc4N4CCOCC4)C3=C2)ccn1 [Example 22, 2-(2-methoxypyridin-4-yl)-9-morpholino-7,8-dihydro-[1,4]diazepino[7,1-a]isoquinolin-5(4H)-one] |
| 2700 nM | > 10000 nM | CC(C)c1cn(C2=NCC(=O)N3CCc4c(-c5ccc(F)nc5)ccnc4C3=C2)cn1 [Example 94, 4-(6-fluoropyridin-3-yl)-11-(4-isopropyl-1H-imidazol-1-yl)-5,6-dihydro-[1,4]diazepino[1,7-h][1,7]naphthyridin-8(9H)-one] |
| 44 nM | 15 nM | COc1cccc2c1CCN1C(=O)CN=C(c3cccs3)C=C21 [Example 5, 9-methoxy-2-(thiophen-2-yl)-7,8-dihydro-[1,4]diazepino[7,1-a]isoquinolin-5(4H)-one] |
| 37 nM | 5900 nM | O=C1CN=C(n2cnc(C3CC3)c2)C=C2c3cccc(-c4cccnc4F)c3CCN12 [Example 97, 2-(4-cyclopropyl-1H-imidazol-1-yl)-9-(2-fluoropyridin-3-yl)-7,8-dihydro-[1,4]diazepino[7,1-a]isoquinolin-5(4H)-one] |
| 220 nM | 18200 nM | O=C1CN=C(n2cnc(C3CC3)c2)C=C2c3cccc(-c4ccnc(F)c4)c3CCN12 [Example 99g, 2-(4-cyclopropyl-1H-imidazol-1-yl)-9-(2-fluoropyridin-4-yl)-7,8-dihydro-[1,4]diazepino[7,1-a]isoquinolin-5(4H)-one] |
| 28 nM | > 10000 nM | COCCc1cn(C2=NCC(=O)N3CCc4c(cccc4-c4ccc(F)nc4)C3=C2)cn1 [Example 84, 9-(6-fluoropyridin-3-yl)-2-(4-(2-methoxyethyl)-1H-imidazol-1-yl)-7,8-dihydro-[1,4]diazepino[7,1-a]isoquinolin-5(4H)-one] |
| 72 nM | > 10000 nM | Cc1cn(C2=NCC(=O)N3CCc4c(cccc4-c4cncs4)C3=C2)cn1 [Example 82, 2-(4-methyl-1H-imidazol-1-yl)-9-(thiazol-5-yl)-7,8-dihydro-[1,4]diazepino[7,1-a]isoquinolin-5(4H)-one] |
| 136 nM | > 10000 nM | Cc1ncn(C2=NCC(=O)N3CCc4c(ccc(F)c4-c4cccnc4F)C3=C2)n1 [Example 99r, 10-fluoro-9-(2-fluoropyridin-3-yl)-2-(3-methyl-1H-1,2,4-triazol-1-yl)-7,8-dihydro-[1,4]diazepino[7,1-a]isoquinolin-5(4H)-one] |
| 18 nM | > 10000 nM | Cc1cc(-c2cccc3c2CCN2C(=O)CN=C(n4cnc(C5CC5)c4)C=C32)sn1 [Example 103, 2-(4-cyclopropyl-1H-imidazol-1-yl)-9-(3-methylisothiazol-5-yl)-7,8-dihydro-[1,4]diazepino[7,1-a]isoquinolin-5(4H)-one] |
| 515 nM | > 10000 nM | CC(C)(C)c1cn(C2=NCC(=O)N3CCc4c(cccc4C4CCCO4)C3=C2)cn1 (stereo not drawn) [Example 112, 2-(4-(tert-butyl)-1H-imidazol-1-yl)-9-(tetrahydrofuran-2-yl)-7,8-dihydro-[1,4]diazepino[7,1-a]isoquinolin-5(4H)-one] |
| 93 nM | > 10000 nM | O=C1CN=C(n2cnc(C3CC3)c2)C=C2c3ccc(F)c(-c4cnc(F)nc4)c3CCN12 [Example 140] |
| 5 nM | 3300 nM | CCC(=O)c1cccc2c1CCN1C(=O)CN=C(n3cnc(C4CCC4)c3)C=C21 [Example 124, 2-(4-cyclobutyl-1H-imidazol-1-yl)-9-propionyl-7,8-dihydro-[1,4]diazepino[7,1-a]isoquinolin-5(4H)-one] |
| 328 nM | > 2000 nM | O=C1CN=C(n2cnc(C3CC3)c2)C=C2c3ccnc(C4CC4)c3CCN12 [Example 110a, 9-cyclopropyl-2-(4-cyclopropyl-1H-imidazol-1-yl)-7,8-dihydro-[1,4]diazepino[7,1-a][2,6]naphthyridin-5(4H)-one] |
| 2 nM | 1500 nM | CC(O)c1cn(C2=NCC(=O)N3CCc4c(cccc4C4CC4)C3=C2)cn1 (stereo not drawn) [Example 129, 9-cyclopropyl-2-(4-(1-hydroxyethyl)-1H-imidazol-1-yl)-7,8-dihydro-[1,4]diazepino[7,1-a]isoquinolin-5(4H)-one] |
